Laboratory results published in US20230173014A1, “WINE LEES, DERIVATIVES THEREOF AND THEIR USES” (GRANDES VINOS Y VIÑEDOS SA, priority 2021, published 2023).

Tests used:
[1] = test system: spontaneously hypertensive rats (SHR); experiment: Antihypertensive activity after acute intragastric administration in hypertensive rats (tail-cuff); assay type: in vivo, rat; details: for ΔSBP (mmHg) 2 h: mean ± ESM n=6; for ΔSBP (mmHg) 4 h / ΔSBP (mmHg) 6 h / ΔSBP (mmHg) 8 h / ΔSBP (mmHg) 24 h / ΔSBP (mmHg) 48 h: same doses; for maximum values of SBP reduction: printed as at 4 h post-administration
Procedure: For the study, male SHR rats 17-20 weeks old and weighing between 310 and 360 g, from Charles River Laboratories España S.A. were used. The rats remained at a stable ambient temperature of 23° C., and with light-dark cycles of 12 hours, eating food and water ad-libitum.
The BP measurement in these animals was carried out with a modification of the tail-cuff technique, following the methodology and equipment described by Mas-Capdevila et al. 2018. The measurement of the SBP was performed prior to the administration of the treatments and after their administration at 2, 4, 6, 8, 24 and 48 h. The treatments consisted of the acute administration of a dose of 5 mL/kg bw of the different wine lees (supernatant collected after centrifugation at 2,950×g, 15 min, 4° C.). The effect of water administration (1.5 mL, negative control) was also evaluated in order to know the circadian variation of SBP in rats and of captopril (50 mg/kg bw dissolved in 1.5 mL of water), antihypertensive drug used as a positive control. The administration of all the treatments was carried out by means of an intragastric tube at between 9 and 10 a.m.
The SBP and DBP results are represented as a decrease in SBP or DBP at different times with respect to the SBP or DBP observed at 0 h (without treatment) for each animal (FIG. 1). Each data represents the mean±the ESM (n=6). Furthermore, the data of the different groups were compared in a 2-way analysis of variance (ANOVA) using the Tukey test at each post-administration time with the SPSS statistical program (IBM SPSS Statistics software version 20.0) and the difference was considered significant for p values <0.05.
In the present example, the effect of dry UVC wine lees, without alcohol, on its antihypertensive activity is described by means of its acute administration to SHR rats. The study was carried out following the method and conditions described in Example 3. The treatments that were evaluated consisted of the acute administration of water (1.5 mL), captopril (50 mg/kg bw), UVC wine lees (5 mL/kg bw), or the same lyophilized lees (125 mg/kg bw). The tested dose of lyophilized lees (125 mg/kg bw) corresponded to the same amount of dry product that is in 5 mL/kg bw of the wine lees. Solid state treatments were diluted in water for administration to animals. […] In fact, it increased its effectiveness from the two hours after its administration, producing a drop in systolic blood pressure of −33 mmHg compared to −12 mmHg, a drop produced by those without drying. Furthermore, its effect was more prolonged in time. Specifically, lyophilized UVC wine lees produced a drop in SBP of −41 mmHg at 24 h post-administration.
The antihypertensive effect of the “hydrolysate 3” was studied for 72 h (0, 2, 4, 6, 8, 24, 48, and 72 h), after its administration by intragastric tube. As in Example 3, negative and positive BP controls were performed, obtained after administration of water and captopril (50 mg/kg bw) respectively, in a volume of 1.5 mL per animal. The antihypertensive activity of the wine lees used to prepare “hydrolysate 3” and “hydrolysate 3” was evaluated, both at a dose of 5 mL/kg bw. The lees used in these tests were from a different batch than the one used in Example 3.
For the evaluation of the possible acute antihypertensive effect of the peptides, a study in SHR rats was carried out, provided by Charles River Laboratories Espana S.A. The rats' age, stalling conditions and BP measurement technique were the same as those described in Example 3. The initial SBP of the animals was 204±2 mmHg. A negative control (water) and a positive control (captopril) were also included during the study. The peptides were administered intragastrically at a single dose of 10 mg/kg bw and captopril at 50 mg/kg bw, diluted in water. BP measurements were pooled and the mean±ESM was obtained (n=6 per group). The same analysis of variance was used as in Example 3.

[2] = molecular target: Angiotensin Converting Enzyme (ACE) (Homo sapiens, UniProt P12821); experiment: ACEI activity measurement (in vitro ACE inhibition); assay type: biochemical; details: synthetic peptides at 0.83 mg/mL
Angiotensin Converting Enzyme (ACE), sequence (P12821 30-1306, species assumed): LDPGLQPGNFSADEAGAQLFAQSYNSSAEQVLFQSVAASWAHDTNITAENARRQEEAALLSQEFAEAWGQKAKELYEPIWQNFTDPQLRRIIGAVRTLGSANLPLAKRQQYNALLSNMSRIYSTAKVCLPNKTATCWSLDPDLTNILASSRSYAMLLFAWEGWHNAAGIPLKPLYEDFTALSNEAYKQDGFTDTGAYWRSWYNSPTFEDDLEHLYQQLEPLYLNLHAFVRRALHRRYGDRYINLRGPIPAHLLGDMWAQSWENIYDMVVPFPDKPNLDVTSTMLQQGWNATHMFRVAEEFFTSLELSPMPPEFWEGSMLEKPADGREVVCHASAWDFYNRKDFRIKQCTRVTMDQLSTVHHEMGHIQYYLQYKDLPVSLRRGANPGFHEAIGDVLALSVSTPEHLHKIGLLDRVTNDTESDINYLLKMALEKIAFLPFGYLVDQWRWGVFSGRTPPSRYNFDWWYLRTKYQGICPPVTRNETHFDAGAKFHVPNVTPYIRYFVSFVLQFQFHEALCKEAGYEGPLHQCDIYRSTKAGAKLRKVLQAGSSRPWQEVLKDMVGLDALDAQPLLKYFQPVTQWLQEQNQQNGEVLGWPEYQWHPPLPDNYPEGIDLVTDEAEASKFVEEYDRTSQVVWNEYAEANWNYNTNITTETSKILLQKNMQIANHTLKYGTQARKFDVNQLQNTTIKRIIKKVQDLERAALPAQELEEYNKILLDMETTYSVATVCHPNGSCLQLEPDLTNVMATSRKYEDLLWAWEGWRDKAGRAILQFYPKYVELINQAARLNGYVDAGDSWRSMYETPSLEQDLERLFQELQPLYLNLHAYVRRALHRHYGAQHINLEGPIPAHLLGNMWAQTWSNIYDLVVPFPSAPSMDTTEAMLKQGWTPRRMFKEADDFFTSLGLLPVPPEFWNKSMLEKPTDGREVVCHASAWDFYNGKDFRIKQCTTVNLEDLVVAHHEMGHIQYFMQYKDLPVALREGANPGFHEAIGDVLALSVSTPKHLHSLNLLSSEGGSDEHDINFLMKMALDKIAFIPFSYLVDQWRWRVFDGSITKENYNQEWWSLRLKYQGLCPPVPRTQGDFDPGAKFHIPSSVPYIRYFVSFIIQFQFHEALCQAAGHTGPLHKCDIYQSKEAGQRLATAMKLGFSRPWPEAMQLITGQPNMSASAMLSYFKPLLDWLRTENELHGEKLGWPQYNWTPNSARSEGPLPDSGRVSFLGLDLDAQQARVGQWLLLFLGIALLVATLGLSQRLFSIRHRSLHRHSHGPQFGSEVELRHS
Procedure: Once the wine lees were collected, they were centrifuged at 2,950×g, 15 min, 4° C. and the supernatant was collected. The ACEI activity of the supernatants was determined as described in Example 2.
The ACEI activity measurement of the wine lees and their hydrolysates was performed according to the method described by Mas-Capdevila et al. 2018 (“Dose-related antihypertensive properties and the corresponding mechanisms of a chicken foot hydrolysate in hypertensive rats”. Nutrients. 2018, 10 (9), 1295), after centrifugation at 2,950×g, 15 min, 4° C. and a dilution of 1/256.
The percentage of inhibition (% Inhibition) was calculated applying the following formula: […]
The IC50 was calculated by determining the ACEI percentage of different concentrations of the sample. […] Subsequently, the necessary amount of the sample was calculated to inhibit 50% of the enzyme by extrapolating in the previously obtained straight line. […]

[3] = Example 10, peptides 10 mg/kg bw, captopril 50 mg/kg bw, intragastric

| ACEI activity (%) [2] [%] | Compound | ΔSBP (mmHg) 2 h [1, 3] [mmHg] | ΔSBP (mmHg) 4 h ([1]; Example 10) [mmHg] | ΔSBP (mmHg) 6 h ([1]; Example 10) [mmHg] | ΔSBP (mmHg) 8 h ([1]; Example 10) [mmHg] | ΔSBP (mmHg) 24 h ([1]; Example 10) [mmHg] | ΔSBP (mmHg) 48 h ([1]; Example 10) [mmHg] | further results |
| --- | --- | --- | --- | --- | --- | --- | --- | --- |
|  | PAGELHP (Synthesized peptide P4) [peptide identified in hydrolysate 3, chemically synthesized] | −7 ± 3 | −5 ± 4 | −6 ± 5 | −5 ± 4 | −3 ± 7 | −2 ± 3 | antihypertensive effect in SHR ([1]; Example 10, 10 mg/kg bw): did not show an antihypertensive effect |
| 2.4 ± 0.9 | LDSPSEGRAPGAD (Synthesized peptide P6) [peptide identified in hydrolysate 3, chemically synthesized] | −11 ± 2 | −16 ± 4 | −24 ± 3 | −22 ± 4 | −2 ± 4 | −5 ± 4 | maximum values of SBP reduction ([1]; Example 10, 10 mg/kg bw): −24 mmHg |
| 48.5 ± 9.1 | NPKLVTIV (Synthesized peptide P2) [peptide identified in hydrolysate 3, chemically synthesized] | −9 ± 6 | −13 ± 4 | −19 ± 5 | −14 ± 3 | −5 ± 4 | −5 ± 3 |  |
|  | LDSPSEGRAPG (Synthesized peptide P5) [peptide identified in hydrolysate 3, chemically synthesized] | −10 ± 4 | −12 ± 5 | −18 ± 3 | −18 ± 3 | −3 ± 4 | −1 ± 4 |  |
| 27.0 ± 5.6 | FKTTDQQTRTTVA (Synthesized peptide P1) [peptide identified in hydrolysate 3, chemically synthesized] | −12 ± 2 | −15 ± 4 | −23 ± 5 | −24 ± 3 | −13 ± 3 | −1 ± 3 | maximum values of SBP reduction ([1]; Example 10, 10 mg/kg bw): −23 mmHg |
|  | C[C@H](CS)C(=O)N1CCC[C@H]1C(=O)O [Captopril, captopril, reference compound] | −19 ± 6 | −34 ± 4 | −44 ± 4 | −45 ± 3 | −22 ± 6 | −7 ± 4 | maximum decrease in SBP ([1]; Example 3, FIG. 1A, at 6 h post-administration, wine lees 5 mL/kg bw, captopril 50 mg/kg bw): −43.2±3.9 mmHg; maximum decrease in DBP ([1]; Example 3, FIG. 1B, at 6 h post-administration, wine lees 5 mL/kg bw, captopril 50 mg/kg bw): −47.2±1.5 mmHg; ΔSBP (mmHg) 2 h ([1]; Example 4, captopril 50 mg/kg bw, UVC wine lees 5 mL/kg bw, lyophilized lees 125 mg/kg bw): −24 ± 3 mmHg; ΔSBP (mmHg) 4 h ([1]; Example 4): −26 ± 2 mmHg; ΔSBP (mmHg) 6 h ([1]; Example 4): −43 ± 4 mmHg; ΔSBP (mmHg) 8 h ([1]; Example 4): −16 ± 3 mmHg; ΔSBP (mmHg) 24 h ([1]; Example 4): −1 ± 2 mmHg; ΔSBP (mmHg) 48 h ([1]; Example 4): −2 ± 3 mmHg; maximum decrease in SBP at 6 h ([1]; Example 8, FIG. 4, captopril 50 mg/kg bw): −43 mm Hg; decrease in SBP at 48 h after administration ([1]; Example 8, hydrolysate 5 mL/kg bw, captopril 50 mg/kg bw): no longer exerted any significant effect; ΔSBP (mmHg) 2 h ([1]; Example 10, peptides 10 mg/kg bw, captopril 50 mg/kg bw, intragastric, listed as captopril): −19 mmHg; ΔSBP (mmHg) 24 h ([1]; Example 10, listed as captopril): −22 mmHg; decrease in SBP ([1]; FIG. 2A, 6 h after administration, captopril 50 mg/kg bw): −43 mmHg |
|  | TVTNPARIA (Synthesized peptide P3) [peptide identified in hydrolysate 3, chemically synthesized] | −2 ± 4 | −14 ± 4 | −16 ± 2 | −14 ± 4 | −5 ± 3 | −2 ± 3 |  |
